Measured values as given in patent publication US20080226718A1, “Indole and Azaindole Derivatives For the Treatment of Inflammatory and Autoimmune Diseases” (Brane Discovery S.r.l, priority 2005, published 2008).

Key:
[1] = tested on: PMNs; assay: Chemotaxis assay, PMNs (fMLP); type: cell-based; conditions: Homo sapiens, fMLP 10 nM, 2 h; for inhibition at 10 µM: [cpd] 10 μM; for inhibition at 25 µM: [cpd] 25 μM; for inhibition at 50 µM: [cpd] 50 μM
Protocol: (§1) PMNs and monocytes migration was assessed using 1 or 3-μm pore size transwells (Bio-Coat Becton-Dickinson), while lymphocytes by using 5-elm pore size transwells.
(§2) Cells were in RPMI1640, containing 10% heat-inactivated Fetal Calf Serum (FCS) and 20 mM HEPES, pH 7.3, at 2×10^6/ml. 100 μl of cell suspension were added to the top well, and 600 μl of medium, containing chemoattractants and test compound, were added to the bottom well. Migration was evaluated after 2 h for PMNs and monocytes and after 4 h for lymphocytes. fMLP 10 nM (PMNs and monocytes) and MIP-3β 100 nM (lymphocytes) were utilized as chemoattractants. After fixation with 1.5% glutaraldehyde, migrated cells were counted by fluorescence-activated celli sorting using polystyrene beads (Polyscience) as an internal standard (Campbell J. J. et al. J. Cell. Biol. 134, 255-266, 1996; Laudanna C. et al. J. Biol. Chem. 273,46, 30306-30315, 1998).
(§3) Results are expressed as percentage of inhibition over control (=100%), and are the mean of three experiments.

[2] = tested on: monocytes; assay: Chemokine-induced rapid adhesion of monocytes to fibrinogen (fMLP); type: cell-based; conditions: Homo sapiens, Monocyte, fMLP 100 nM; for inhibition at 10 µM: [cpd] 10 μM; for inhibition at 25 µM: [cpd] 25 μM; for inhibition at 50 µM: [cpd] 50 μM
Protocol: (§4) Adhesion was performed on purified integrin ligands and was evaluated as reported in Constantin G. et al., Immunity, 16, 759-769, 2000. Briefly, primary naïve lymphocytes, polymorphonuclear neutrophils (PMNs) or monocytes were isolated form healthy donors. In other experiments, murine autoreactive T cells were obtained from SJL mice immunized with PLP139-151 as described (Piccio L. et al., J. Immunol, 168, 1940-1949, 2002). Cells were resuspended at 4×10^6/ml in PBS, CaCl2, MgCl2 1 mM, 10% FCS, pH 7.2. Adhesion assays were performed on eighteen well glass slides coated overnight at 4° C. with ligands for CR3 (fibrinogen) or LFA-1 (ICAM-1). 20 μl of cell suspension were added to the wells and stimulated at 37° C. with 5 μl of agonists prior to washing, fixation and computer-assisted enumeration of bound cells.
(§5) Integrin activation was measured as induction of rapid adhesion triggered by the classical chemoattractant N-formyl-L-methionyl-L-leucyl-phenylalanine (fMLP) (100 nM) or by the CC chemokine MIP3β (CCL19, 1 μM). PMNs and monocytes were triggered to adhere to fibrinogen (CR3 ligand); naive human lymphocytes or murine encephalitogenic T cells were triggered to adhere to ICAM-1 (LFA-1 ligand). Triggered adhesion was evaluated after 2 min of stimulation under static conditions. The cells were pretreated at 37° C. for 30-60 min with the indicated concentrations of the test compound. Results are expressed as percentage of inhibition over control (=100%) and are the mean of three experiments in the case of human leukocytes. Results are expressed as mean counts and are the mean counts ±S.D of three experiments and are the mean of three experiments in the case of murine encephalitogenic lymphocytes.

[3] = tested on: PMNs; assay: Chemokine-induced rapid adhesion of PMNs to fibrinogen (fMLP); type: cell-based; conditions: Homo sapiens, 2 min, fMLP 100 nM; for inhibition at 10 µM: [cpd] 10 μM; for inhibition at 25 µM: [cpd] 25 μM; for inhibition at 50 µM: [cpd] 50 μM
Protocol: as §4, §5
(§6) Integrin activation was measured as induction of rapid adhesion triggered by the “classical” chemoattractant fMLP (100 nM) or by the CC chemokine MIP3β (CCL19, 1 μM). PMNs were triggered to adhere to fibrinogen (CR3 ligand); lymphocytes were triggered to adhere to ICAM-1 (LFA-1 ligand).

[4] = tested on: lymphocytes; assay: Chemokine-induced rapid adhesion of lymphocytes to ICAM-1 (MIP3β); type: cell-based; conditions: Homo sapiens, Lymphocyte, MIP3β 1 μM; for inhibition at 10 µM: [cpd] 10 μM, read-out: Inhibition of Adhesion (%) Lymphocytes (MIP3-β); for inhibition at 25 µM: [cpd] 25 μM; for inhibition at 25 µM / inhibition at 50 µM: read-out: Inhibition of Adhesion (%) Lymphocytes (MIP3-β) (converted); for inhibition at 50 µM: [cpd] 50 μM
Protocol: as §4, §5, §6

[5] = tested on: monocytes; assay: Chemotaxis assay, monocytes (fMLP); type: cell-based; conditions: Homo sapiens, Monocyte, fMLP 10 nM, 2 h; for inhibition at 10 µM: [cpd] 10 μM; for inhibition at 25 µM: [cpd] 25 μM; for inhibition at 50 µM: [cpd] 50 μM
Protocol: as §1, §2, §3

[6] = tested on: encephalitogenic lymphocytes; assay: Spontaneous adhesion of encephalitogenic T cells on purified ICAM-1; type: cell-based, SJL mice; conditions: Mus musculus, Lymphocyte, 1 h; for inhibition at 5 µM: [cpd] 5 μM, read-out: Inhibition of Spontaneous Adhesion in encephalitogenic lymphocytes (% of control/non-treated cells) ICAM-1; for inhibition at 10 µM: [cpd] 10 μM; for inhibition at 10 µM / inhibition at 50 µM: read-out: Inhibition of Spontaneous Adhesion in encephalitogenic lymphocytes (% of control/non-treated cells) ICAM-1 (converted); for inhibition at 50 µM: [cpd] 50 μM
Protocol: Spontaneous adhesion of encephalitogenic lymphocytes was measured in adhesion assays on purified ICAM-1 and VCAM-1 as previously described (Constantin G. et al., J. Immunol. 162, 1144-1149, 1999). Autoreactive T cells were obtained from SJL mice immunized with PLP139-151 as described (Piccio L. et al., J. Immunol. 168, 1940-1949, 2002). Lymphocytes were treated with test compound at concentrations between 5-100 μM for 1 h, while control/untreated cells were treated with vehicle (DMSO). Results are expressed as percentage of inhibition over control (=100%) ±S.D and are the mean of three-four experiments.
ICAM-1 and VCAM-1 are adhesion molecules from the family of immunoglobulins and control the migration of lymphocytes through the endothelium during inflammatory responses. Encephalitogenic T cells are activated lymphocytes displaying spontaneous adhesion on ICAM-1 and VCAM-1 and have increased migration capacities in inflammation sites. Spontaneous adhesion of encephalitogenic lymphocytes was measured in adhesion assays on purified ICAM-1 and VCAM-1 as described in the method.

[7] = tested on: lymphocytes; assay: Chemotaxis assay, lymphocytes (MIP-3β); type: cell-based; conditions: Homo sapiens, Lymphocyte, MIP-3β 100 nM, 4 h; for inhibition at 10 µM: [cpd] 10 μM, read-out: Inhibition of Chemotaxis (%) Lymphocytes (MIP3-β); for inhibition at 25 µM: [cpd] 25 μM; for inhibition at 25 µM / inhibition at 50 µM: read-out: Inhibition of Chemotaxis (%) Lymphocytes (MIP3-β) (converted); for inhibition at 50 µM: [cpd] 50 μM
Protocol: as §1, §2, §3

[8] = tested on: encephalitogenic lymphocytes; assay: Chemokine-induced adhesion of murine encephalitogenic T cells to ICAM-1; type: cell-based, SJL mice; conditions: ICAM-1; for Chemokine-induced Adhesion in encephalitogenic lymphocytes, Mean counts ± S.D., in presence of MIP3-β stimulation: 1 μM CCL19 (MIP-3beta)
Protocol: as §4, §5
Chemokines trigger rapid arrest of lymphocytes in blood vessels through pertussis toxin-sensitive G protein coupled receptors. Rapid adhesion to purified ICAM-1 was measured in in vitro adhesion assays using control/untreated cells and lymphocytes treated with concentration between 5-50 μM for 1 h. Autoreactive lymphocytes were then stimulated with 1 μM CCL19 (MIP-3beta) for 3 min. […] These compounds were already efficient in blocking adhesion using a concentration of 5 μM for the cell treatment.

| Structure (SMILES) | inhibition at 10 µM [1] | inhibition at 25 µM [1] | inhibition at 50 µM [1] | inhibition at 10 µM [2] | inhibition at 25 µM [2] | inhibition at 50 µM [2] | inhibition at 10 µM [3] | inhibition at 25 µM [3] | inhibition at 50 µM [3] | inhibition at 10 µM [4] | inhibition at 25 µM [4] | inhibition at 50 µM [4] | inhibition at 10 µM [5] | inhibition at 25 µM [5] | inhibition at 50 µM [5] | inhibition at 5 µM [6] | inhibition at 10 µM [6] | inhibition at 50 µM [6] | inhibition at 10 µM [7] | inhibition at 25 µM [7] | also measured |
| --- | --- | --- | --- | --- | --- | --- | --- | --- | --- | --- | --- | --- | --- | --- | --- | --- | --- | --- | --- | --- | --- |
| CNC(=O)c1[nH]c2cc(OC)c(OC)cc2c1-c1ccccc1 [Example 48] | 82.4% | 87.8% | 96.4% | 7.5% | 22.5% | 31.7% | 18% | 48.9% | 53.7% | 53.7% | 77.3% | 91.5% | 71.7% | 90.4% | 96.5% | 37.5% | 65.6% | 95.6% | 48.9% | 77.3% | inhibition at 50 µM [7]: 94.9% |
| COc1ccc(-c2c(C(N)=O)[nH]c3cc(OC)c(OC)cc23)cc1 [Example 14] |  |  |  |  |  |  |  |  |  |  |  |  |  |  |  |  |  |  |  |  | Chemokine-induced Adhesion in encephalitogenic lymphocytes, Mean counts ± S.D., in presence of MIP3-β stimulation ([8]; [cpd] 1 μM): 120.3 ± 9.8; Adhesion in encephalitogenic lymphocytes, Mean counts ± S.D., in absence of MIP3-β stimulation ([8]; [cpd] 1 μM): 67.6 ± 2.0; Chemokine-induced Adhesion in encephalitogenic lymphocytes, Mean counts ± S.D., in presence of MIP3-β stimulation ([8]; [cpd] 5 μM): 101.2 ± 6.1; Adhesion in encephalitogenic lymphocytes, Mean counts ± S.D., in absence of MIP3-β stimulation ([8]; [cpd] 5 μM): 41.8 ± 4.2; Chemokine-induced Adhesion in encephalitogenic lymphocytes, Mean counts ± S.D., in presence of MIP3-β stimulation ([8]; [cpd] 50 μM): 56.8 ± 2.2; Adhesion in encephalitogenic lymphocytes, Mean counts ± S.D., in absence of MIP3-β stimulation ([8]; [cpd] 50 μM): 20.9 ± 11.7 |
| COc1cc2[nH]c(C(=O)N(C)C)c(-c3ccccc3)c2cc1OC [Example 46] | 65.3% | 74.5% | 93.1% | 12.6% | 32.2% | 37.6% | 16.7% | 28.7% | 38.4% | 34.1% | 58.8% | 67.1% | 48.2% | 63.8% | 89.9% | 15.8% | 25.9% | 96.3% | 19.9% | 45% | inhibition at 50 µM [7]: 85% |
| COc1ccc(-c2c(C#N)n(CCN(C)C)c3cc(OC)c(OC)cc23)cc1 [Example 18] | 52.3% | 77.6% | 91.2% | 7.8% | 14.7% | 31.2% | 2.2% | 10.4% | 26.7% | 66.3% | 91.4% | 95.1% | 17.3% | 62.1% | 84.5% | 28.7% | 36.8% | 96.9% | 51% | 86.7% | inhibition at 50 µM [7]: 92.3% |
| COc1ccc(-c2c3n(c4cc(OC)c(OC)cc24)CC(=O)NC3)cc1 [Example 66] | 50% | 77.8% | 92.6% | 11.3% | 28.7% | 40.4% | 6.1% | 11.5% | 17.2% | 61.3% | 68.1% | 79% | 43.9% | 74.4% | 92.7% | 15% | 33.7% | 92.9% | 57.5% | 89.6% | inhibition at 50 µM [7]: 87.7% |
| COc1cc2[nH]c(C(=O)N3CCOCC3)c(-c3ccccc3)c2cc1OC [Example 47] | 75.4% | 87.5% | 96.1% | 8.7% | 14.4% | 22.4% | 16.6% | 37.1% | 45.4% | 43.8% | 52.5% | 77.5% | 56.5% | 82.4% | 93.9% | 7.1% | 17.2% | 93.4% | 44.3% | 66.6% | inhibition at 50 µM [7]: 88.2% |
| COc1ccc(-c2c3n(c4cc(OC)c(OC)cc24)CCOC3)cc1 [Example 76] |  |  |  |  |  |  |  |  |  |  |  |  |  |  |  |  |  |  |  |  | inhibition at 100 µM ([3]; [cpd] 100 μM): 66%; Chemokine-induced Adhesion in encephalitogenic lymphocytes, Mean counts ± S.D., in presence of MIP3-β stimulation ([8]; [cpd] 1 μM): 102.9 ± 2.9; Adhesion in encephalitogenic lymphocytes, Mean counts ± S.D., in absence of MIP3-β stimulation ([8]; [cpd] 1 μM): 36.9 ± 4.0; Chemokine-induced Adhesion in encephalitogenic lymphocytes, Mean counts ± S.D., in presence of MIP3-β stimulation ([8]; [cpd] 5 μM): 87.7 ± 12.0; Adhesion in encephalitogenic lymphocytes, Mean counts ± S.D., in absence of MIP3-β stimulation ([8]; [cpd] 5 μM): 28.3 ± 8.9; Chemokine-induced Adhesion in encephalitogenic lymphocytes, Mean counts ± S.D., in presence of MIP3-β stimulation ([8]; [cpd] 50 μM): 66.6 ± 1.8; Adhesion in encephalitogenic lymphocytes, Mean counts ± S.D., in absence of MIP3-β stimulation ([8]; [cpd] 50 μM): 23.0 ± 1.9 |
